# In patent US20160271114A1, “Composition for preventing or treating bacterial infectious disease comprising phospholipase D2 inhibitor” (RESEARCH & BUSINESS FOUNDATION SUNGKYUNKWAN UNIVERSITY, priority 2015, published 2016):
# How the values were obtained:
# GRK2 = experiment: LPS-induced GRK2 level in neutrophils (western blotting); type: cell-based, mice; settings: WT neutrophils, LPS 1 μg/ml; CAY10594 at 10 μM; FIG. 18B, FIG. 19
# Method: First, neutrophils were isolated from the bone marrow of WT or PLD2 knockout (KO) mice and stimulated with 1 μg/ml of LPS for 1 hour, and then GRK2 levels were analyzed by western blotting.
# Afterward, neutrophils isolated from the bone marrow of the WT mice were cultured with 10 μM of a vehicle (0.5% Tween 80 in PBS) or a PLD2 inhibitor (CAY10594) before being cultured with LPS (1 μg/ml), and then GRK2 levels were analyzed by western blotting.
# The control of LPS-induced GRK2 expression by an inhibitor for an intracellular signaling pathway (BAY11-7082) was analyzed by western blotting.
# CXCR2 = CXCR2 surface expression in LPS-stimulated neutrophils (flow cytometry); type: cell-based, mice; settings: WT neutrophils, LPS 1 μg/ml; FIG. 17D, FIG. 20A
# [1] = tested on: neutrophils isolated from the bone marrow of WT mice; experiment: CXCL2-induced chemotactic migration of LPS-stimulated neutrophils; type: cell-based; settings: LPS 1 μg/ml, FIG. 20B
# PLD2 knockout (KO) mice = experiment: Survival rate of PLD2 knockout (KO) mice after CLP surgery with CXCR2 antagonist treatment; type: in vivo; settings: treated with the CXCR2 antagonist, FIG. 21
# Method: (§1) C57Bl/6 mice were obtained from Orient Bio (Seongnam, Korea). PLD2 knockout (KO) mice were prepared by the method described in a previous study (Ghim, J., J. S. Moon, C. S. Lee, J. Lee, P. Song, A. Lee, J. H. Jang, D. Kim, J. H. Yoon, Y. J. Koh, C. Chelakkot, B. J. Kang, J. M. Kim, K. L. Kim, Y. R. Yang, Y. Kim, S. H. Kim, D. Hwang, P. G. Suh, G. Y. Koh, Y. Y. Kong, and S. H. Ryu, 2014, “Endothelial deletion of phospholipase D2 reduces hypoxic response and pathological angiogenesis,” Arterioscler. Thromb. Vasc. Biol., 34:1697-1703.) All experiments involving animals received the approval of the Institutional Review Committee for Animal Care and Use at the medical school of Sungkyunkwan University. Cecal ligation and puncture (CLP) sepsis models were prepared by the method described in a previous study (Kim, S. D., H. Y. Lee, J. W. Shim, H. J. Kim, Y. H. Yoo, J. S. Park, S. H. Baek, B. A. Zabel, and Y. S. Bae, 2011, “Activation of CXCR2 by extracellular matrix degradation product acetylated Pro-Gly-Pro has therapeutic effects against sepsis,” Am. J. Respir. Crit. Care Med., 184:243-251.) That is, mice were anesthetized with 50 mg/kg of Zoletil and 10 mg/kg of Rompun through intraperitoneal injection, and an abdominal midline incision was made to expose the cecum. […]
# WT neutrophils = experiment: Ionomycin-induced intracellular calcium mobilization (Fura-2/AM); type: cell-based, mice; settings: 10 μM before 5 μM ionomycin, FIG. 15
# Method: Subsequently, for individual analysis, the cells were aliquoted (2×10^6 cells/1 ml of Locke's solution containing 154 mM NaCl, 5.6 mM KCl, 1.2 mM MgCl2, 5 mM HEPES [pH 7.3], 10 mM glucose, and 2 mM CaCl2). Afterward, the cells were stimulated with 5 μM ionomycin. Meanwhile, to check the case of the treatment with a PLD2 inhibitor, the cells aliquoted from the WT mouse were cultured with 10 μM of a vehicle (0.5% Tween 80 in PBS) or a PLD2 inhibitor (CAY10594) before being stimulated with ionomycin. A fluorescence change at an emission wavelength of 500 nm was measured using an RF-5301PC spectrofluorophotometer (Shimadzu Instruments Inc., Kyoto, Japan) at excitation wavelengths of 340 nm and 380 nm A [Ca^2+]i increase causes an increase in the fluorescence ratio at an excitation efficiency of 340 to 380 nm, and [Ca^2+]i was calculated using the fluorescence ratio according to Equation 5 of Grynkiewicz et al (Grynkiewicz et al., 1985).
# CLP mice = experiment: Survival rate in CLP-induced sepsis models, WT mice; type: in vivo; settings: WT mice after CLP surgery; 10 mg/kg subcutaneous at 2, 14, 26 and 38 hours; monitored for 10 days; FIG. 1B
# Method: as §1
# [2] = tested on: neutrophils isolated from the bone marrow of the WT mice; experiment: NET formation in ionomycin-stimulated neutrophils (SYTOX Green staining); type: cell-based; settings: 10 μM, then 5 μM ionomycin, FIG. 10B
# Method: Neutrophils were isolated from the bone marrow of the WT or PLD2 knockout (KO) mice. More particularly, bone marrow cells were isolated from a femur and a tibia using an HBSS-EDTA solvent. A cell suspension was centrifuged at 400 g for 10 minutes, resuspended cells were loaded onto 52%, 69%, and 78% Percoll gradients, and centrifuged at 1500 g for 30 minutes without breaking. The cells were isolated on a 69%/78% interface layer, and RBCs were removed by hypotonic lysis. 95% or more of the isolated cells were identified to be Ly6G-positive using a flow cytometer. The isolated neutrophils (1×10^5 cells) were seeded on 0.001% poly-lysine-coated 12-mm cover slips of 24-well plates, and stimulated with 5 μM ionomycin. Afterward, the cells were fixed with 4% paraformaldehyde and stained by SYTOX Green nucleic acid staining (5 μM). The NET was visualized using a Zeiss Axiovert fluorescent microscope (Zeiss, Oberkochen, Germany), and images were taken by a Nikon Digital camera.
# Additionally, to confirm the variations of NET formation when a PLD2 inhibitor was treated, neutrophils isolated from the bone marrow of the WT mice were cultured with 10 μM of a vehicle (0.5% Tween 80 in PBS) or a PLD2 inhibitor (CAY10594), and then stimulated with 5 μM ionomycin.
# [3] = tested on: spleen cells isolated from the WT mice; experiment: LPS-induced inflammatory cytokine/chemokine production in spleen cells (ELISA); type: cell-based; settings: 10 μM for 30 minutes before LPS (1 μg/ml) for 24 hours; compared with vehicle; FIG. 5B
# Method: Spleen cells (3×10^6 cells/0.3 ml) isolated from WT or PLD2 knockout (KO) mice were cultured in RPMI 1640 medium containing 5% fetal bovine serum (FBS) in 96-well plates and placed in a 5% CO2 incubator at 37° C. Afterward, the spleen cells were incubated with LPS (1 μg/ml) for 24 hours, and the expression of cytokines and chemokines in the spleen cells was measured by ELISA (e-Bioscience, San Diego, Calif.).
# Additionally, to examine the effect of a PLD2 inhibitor on cytokine and chemokine production, before additional culturing with LPS (1 μg/ml) for 24 hours, the spleen cells isolated from the WT mice were cultured with 10 μM of a vehicle (0.5% Tween 80 in PBS) or a PLD2 inhibitor (CAY10594) for 30 minutes. A cell-free supernatant was collected and centrifuged, and the cytokines and the chemokines were detected by ELISA (e-Bioscience, San Diego, Calif.) according to the manufacturer's instructions.
compound,measurement,setting,value
Cc1ccc(S(=O)(=O)/C=C/C#N)cc1 [BAY11-7082],upregulation of LPS-induced GRK2 / LPS-induced GRK2 expression,GRK2,completely inhibited
same,downregulation of LPS-induced CXCR2,CXCR2,significantly diminished
same,CXCL2-induced chemotactic migration of the neutrophils by LPS stimulation,[1],partially but significantly recovered
O=C(Nc1ccc([N+](=O)[O-])cc1O)Nc1ccccc1Br [SB225002],survival of PLD2 knockout (KO) mice after CLP surgery,PLD2 knockout (KO) mice,all of the mice died
"O=C(NCCN1CCC2(CC1)C(=O)NCN2c1ccccc1)c1ccc2ccccc2c1 [CAY10594, N-[2-(4-oxo-1-phenyl-1,3,8-triazaspiro[4,5]decan-8-yl)ethyl]-2-naphthalenecarboxamide]",upregulation of LPS-induced GRK2 / LPS-induced GRK2 expression,GRK2,blocked
same,ionomycin-induced intracellular calcium mobilization,WT neutrophils,improved
same,survival rate,CLP mice,40%
same,NET formation caused by ionomycin stimulation,[2],increased
same,CCL5 secretion,[3],considerably decreased
same,CXCL1 secretion,[3],considerably decreased
same,IL-1β secretion,[3],considerably decreased
same,IL-6 secretion,[3],considerably decreased
same,TNF-α secretion,[3],considerably decreased
same,downregulation of LPS-induced CXCR2,CXCR2,recovered
